Assay results taken from patent publication US6455270B1, “Method for inhibiting eukaryotic protein kinases” (TerraGen Discovery Inc., priority 1997, dated 2002).

Legend:
Streptomyces 85E = test: Inhibition of sporulation in Streptomyces 85E (filter paper disc on freshly seeded plate); type: cell-based, Streptomyces WEC478-85E; conditions: for zone of inhibition at 10 µg/disc: Streptomyces, 85E, 10 ug compound applied to disc; for Growth of the vegetative mycelia: disc assay, 10 ug
Description: adding the material to be tested for kinase inhibitory activity to a growing culture of a prokaryotic organism such as a streptomycete;
allowing the culture to grow for a period of time in the presence of the material; and
observing the culture for altered development relative to development of the prokaryotic organism grown in the absence of the material. Observation of altered development is indicative that the material has activity as an inhibitor of post-translational protein phosphorylation. In particular, the material to be tested can be added to a growing culture of the prokaryotic organism by placing a carrier disk bearing the material on a freshly seeded plate. Inhibition of the development of aerial mycelia and spore formation is an indicator that the material has activity as an inhibitor of post-translational protein phosphorylation.
We have used a wild strain of Streptomyces isolated from soil and designated Streptomyces WEC478-85E (hereinafter strain 85E) to test lichen extracts. Strain 85E has been deposited with the American Type, Culture Collection in accordance with the provisions of the Budapest treaty and has been assigned Accession Number ATCC 55824.
In the test assay, the lichen-extract to be tested was applied to a filter paper disk and then placed on a plate which has been freshly seeded with the strain 85E test organism. The test organism is then allowed to grow in the presence of the filter paper disk for a period of 24 to 36 hours, after which the organism is evaluated for altered development in the zone around the disk. An observation of an inhibition of the formation of aerial mycelia and spores, without inhibition of the growth of vegetative mycelia is particularly indicative of the presence of an inhibitor of post-translational phosphorylation.

Human c-Src kinase = Human c-Src kinase (Homo sapiens, UniProt P12931); test: Human c-Src kinase inhibition (PTK reaction); type: biochemical; conditions: 0.2 unit c-Src
Description: (§1) I. Human c-Src kinase incubated 30 min. at 30° C. with 5 ug usnic acid or-vulpinic acid: II. Human c-Src incubated 5 min. at 30° C. with 5 ug usnic acid or 5 ug vulpinic acid: 5 ug in the 50 ul PTK reaction mixture represents a concentration of about 300 uM for both of these compounds and twice that in the 25 ul PKC reactions. Thus, inhibition was detected for this particular protein tyrosine kinase and only minimally inhibitory for protein kinase C. Other protein kinases may show greater or lesser levels of inhibition.

Protein Kinase C = Protein Kinase C inhibition (PKC reaction); type: biochemical; conditions: 10 ng PKC, incubated 30 min. at 30° C. with 5 ug compound (about 600 uM in 25 ul)
Description: as §1, with “III. Protein Kinase C” for “I. Human c-Src kinase”, “30” for “30 min. at 30° C. with 5 ug usnic acid or-vulpinic acid: II. Human c-Src incubated 5”

Human c-Src kinase, sequence (P12931 whole entry): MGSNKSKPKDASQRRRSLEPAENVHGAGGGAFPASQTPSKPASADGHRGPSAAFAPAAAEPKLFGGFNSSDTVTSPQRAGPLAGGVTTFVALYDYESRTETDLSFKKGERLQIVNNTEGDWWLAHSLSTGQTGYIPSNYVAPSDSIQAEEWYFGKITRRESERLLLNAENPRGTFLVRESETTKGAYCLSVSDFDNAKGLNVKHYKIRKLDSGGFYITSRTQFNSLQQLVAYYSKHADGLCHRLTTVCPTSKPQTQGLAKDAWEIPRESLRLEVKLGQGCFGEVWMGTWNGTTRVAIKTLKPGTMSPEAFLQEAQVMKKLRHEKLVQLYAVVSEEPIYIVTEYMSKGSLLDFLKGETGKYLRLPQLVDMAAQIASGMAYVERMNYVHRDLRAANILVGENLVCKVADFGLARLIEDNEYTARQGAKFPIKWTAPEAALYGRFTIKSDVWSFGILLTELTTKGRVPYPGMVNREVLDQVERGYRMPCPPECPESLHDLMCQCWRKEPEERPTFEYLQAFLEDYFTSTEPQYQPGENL

CC(=O)c1c(O)c(C)c(O)c2c1OC1=CC(=O)C(C(C)=O)C(=O)C12C (stereo not shown) [usnic acid]
zone of inhibition at 10 µg/disc (Streptomyces 85E): 15 mm
Growth of the vegetative mycelia (Streptomyces 85E): not inhibited

COC(=O)/C(=C1/OC(=O)C(c2ccccc2)=C1O)c1ccccc1 [vulpinic acid]
c-Src kinase reaction reading (control reaction 0.208) (Human c-Src kinase; incubated 5 min. at 30° C. with 5 ug compound (about 300 uM in 50 ul)): 0.180
c-Src kinase reaction reading (control reaction 0.562) (Human c-Src kinase; incubated 30 min. at 30° C. with 5 ug compound (about 300 uM in 50 ul)): 0.483
Protein Kinase C reaction reading (control reaction 0.289) (Protein Kinase C): 0.230
zone of inhibition at 10 µg/disc (Streptomyces 85E): 15 mm
Growth of the vegetative mycelia (Streptomyces 85E): not inhibited
